Assay results reported in patent publication US12440494B2, “Compounds useful for inhibiting RAF dimers” (ALBERT EINSTEIN COLLEGE OF MEDICINE, priority 2019, dated 2025).

What was measured:
BRAF^V600E [1] = target: T1, BRAF^V600E (Homo sapiens (Human), UniProt P15056, V600E); experiment: BRAF^V600E kinase activity, Z′-LYTE enzymatic assay (SelectScreen, Invitrogen); type: biochemical; details: 100 μM ATP; read-out: BRAF^V600E Inhibition IC50
Protocol: BRAF kinase assays were performed using the Z′-LYTE™ enzymatic assay (Invitrogen, USA). […] Titrations were performed using a 1:3 dilution. Assays were performed using SelectScreen (Invitrogen).
Target sequence in this assay (P15056 whole entry V600E): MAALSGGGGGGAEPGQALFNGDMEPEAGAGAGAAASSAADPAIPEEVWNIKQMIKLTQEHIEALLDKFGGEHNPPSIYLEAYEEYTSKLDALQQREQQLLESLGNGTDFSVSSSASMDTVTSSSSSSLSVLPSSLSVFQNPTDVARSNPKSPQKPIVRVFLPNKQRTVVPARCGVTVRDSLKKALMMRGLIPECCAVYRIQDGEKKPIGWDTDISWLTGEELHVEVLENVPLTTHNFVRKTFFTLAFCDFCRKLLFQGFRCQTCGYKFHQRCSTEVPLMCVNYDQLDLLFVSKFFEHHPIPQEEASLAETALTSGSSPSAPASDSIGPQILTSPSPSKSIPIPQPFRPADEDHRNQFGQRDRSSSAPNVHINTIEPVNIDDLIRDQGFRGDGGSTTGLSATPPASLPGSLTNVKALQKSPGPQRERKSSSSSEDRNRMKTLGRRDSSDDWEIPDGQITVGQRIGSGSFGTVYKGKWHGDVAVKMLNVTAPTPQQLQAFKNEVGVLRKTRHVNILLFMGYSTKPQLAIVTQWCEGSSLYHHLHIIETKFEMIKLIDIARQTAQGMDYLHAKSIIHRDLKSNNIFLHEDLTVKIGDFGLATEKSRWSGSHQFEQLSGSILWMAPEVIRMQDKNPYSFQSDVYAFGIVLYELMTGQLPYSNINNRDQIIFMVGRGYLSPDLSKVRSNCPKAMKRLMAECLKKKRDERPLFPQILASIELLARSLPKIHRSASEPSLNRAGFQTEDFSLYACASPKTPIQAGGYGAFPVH

BRAF^V600E [2] = experiment: Biolayer interferometry, direct binding to purified BRAF; set-up: species or system human
Protocol: Human BRAF kinase domain (residues 443-723) with V600E mutation in addition to designed mutations to improve expression in E. coli as previously described^12 was cloned into the first multiple cloning site of a pET-28a vector, which expresses a hexa-histidine tag at the N-terminus of BRAF. Recombinant protein was transformed and expressed into E. coli strain BL21-Codon Plus(DE3)-RIPL (Agilent Technologies). Protein purification was performed by a rapid two-step procedure using nickel-affinity chromatography (Ni-NTA) followed by size exclusion chromatography with Superdex200 HR 10/30 (GE Healthcare).
BRAF was biotinylated using EZ-Link™ Sulfo NHS-LC-LC-Biotin (Invitrogen) in phosphate-buffered saline (PBS) according to manufacturer instructions. Excess biotin was removed using size exclusion chromatography. Freshly biotinylated protein was immobilized on Super Streptavidin biosensors (SSA) to high levels (6-8 nm) followed by quenching with biocytin. Compound binding experiments were performed at 25° C. in PBS, 0.01% Tween-20 and 2% DMSO. To reference for bulk solvent effects, binding curves were corrected using data from control protein-free SSA biosensors, which were included in each experiment and were treated similarly to protein-loaded sensors.

FGFR = experiment: Kinase inhibition of known ponatinib target FGFR; type: biochemical
FLT3 = FLT3 (Homo sapiens (Human), UniProt P36888); experiment: Kinase inhibition of known ponatinib target FLT3; type: biochemical
Chain of FLT3 (P36888 27-993, species assumed): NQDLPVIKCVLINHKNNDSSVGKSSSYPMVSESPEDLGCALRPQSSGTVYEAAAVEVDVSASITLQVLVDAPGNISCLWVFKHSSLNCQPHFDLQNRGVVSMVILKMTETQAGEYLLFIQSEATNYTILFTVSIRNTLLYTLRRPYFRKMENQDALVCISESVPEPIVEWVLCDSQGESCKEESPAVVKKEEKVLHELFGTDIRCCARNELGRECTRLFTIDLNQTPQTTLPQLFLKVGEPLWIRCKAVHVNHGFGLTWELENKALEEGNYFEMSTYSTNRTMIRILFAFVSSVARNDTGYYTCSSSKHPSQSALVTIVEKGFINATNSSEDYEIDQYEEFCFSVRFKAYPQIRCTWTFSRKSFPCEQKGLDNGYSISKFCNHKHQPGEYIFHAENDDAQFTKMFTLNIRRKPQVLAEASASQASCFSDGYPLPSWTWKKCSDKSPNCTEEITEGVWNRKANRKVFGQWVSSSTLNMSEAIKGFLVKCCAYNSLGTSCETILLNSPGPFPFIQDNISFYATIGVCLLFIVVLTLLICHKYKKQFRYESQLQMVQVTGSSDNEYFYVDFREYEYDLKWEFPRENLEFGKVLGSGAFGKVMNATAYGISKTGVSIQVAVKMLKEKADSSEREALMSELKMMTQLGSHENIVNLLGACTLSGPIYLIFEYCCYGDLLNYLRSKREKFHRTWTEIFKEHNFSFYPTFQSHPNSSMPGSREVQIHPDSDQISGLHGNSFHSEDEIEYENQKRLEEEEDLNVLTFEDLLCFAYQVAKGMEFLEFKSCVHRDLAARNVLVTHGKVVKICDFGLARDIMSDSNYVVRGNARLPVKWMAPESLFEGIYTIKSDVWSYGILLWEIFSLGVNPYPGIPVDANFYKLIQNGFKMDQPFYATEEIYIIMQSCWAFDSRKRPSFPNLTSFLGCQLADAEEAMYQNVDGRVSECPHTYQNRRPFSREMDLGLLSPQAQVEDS

[3] = tested on: p61BRAF^V600E dimers (SKMEL239-C4 cells); experiment: pMEK/pERK inhibition by western blot in SKMEL239-C4 melanoma cells; type: cell-based
Protocol: (§1) Cell lines were purchased from ATCC or provided by Poulikos Poulikakos laboratory at Icahn School of Medicine at Mount Sinai. A375, SKMEL30 and SKMEL2 cells were grown in Dulbecco's modified Eagle's medium (DMEM) with 10% fetal bovine serum (FBS), 1% Pen-Strep, 1% Glutamine. […] CALU6 cells were grown in Roswell Park Memorial Institute medium (RPMI) with 10% fetal bovine serum (FBS), 1% Pen-Strep, 1% Glutamine.

[4] = tested on: BRAF^V600E monomers (A375 cells); experiment: pMEK/pERK inhibition by western blot in A375 melanoma cells; type: cell-based; details: compared to ponatinib
Protocol: as §1

[5] = tested on: SMEL239 C4 melanoma cells; experiment: Cell viability assay (Cell-Titer Glo), SKMEL239 C4; type: cell-based; details: 72 hours
Protocol: For cell viability assays, we followed the manufacturer's protocol for Cell-Titer Glo (Promega). In brief, cells were plated in 96-well plates at a density of 5000 cells per well. The next day, cells were treated with increasing concentrations of inhibitors for 72 hours at 37° C. At the end of the incubation period, 100 µL of Cell-Titer Glo (Promega) was added to each well and further incubated for 15 min. at room temperature. Cell viability was determined by measuring luminescence and was detected by a F200 PRO microplate reader (TECAN). Viability assays were performed in at least triplicate and the data normalized to vehicle-treated control wells. IC50 values were determined by nonlinear regression analysis using Prism software (Graphpad).

[6] = target: BRAF monomer (BRAF509H mutant) (Homo sapiens (Human), UniProt P15056, R509H); experiment: Isothermal titration calorimetry with BRAF509H mutant unable to dimerize; type: binding; details: PBS plus 2% DMSO
Chain of BRAF monomer (BRAF509H mutant) (P15056 443-723 R509H limits assumed): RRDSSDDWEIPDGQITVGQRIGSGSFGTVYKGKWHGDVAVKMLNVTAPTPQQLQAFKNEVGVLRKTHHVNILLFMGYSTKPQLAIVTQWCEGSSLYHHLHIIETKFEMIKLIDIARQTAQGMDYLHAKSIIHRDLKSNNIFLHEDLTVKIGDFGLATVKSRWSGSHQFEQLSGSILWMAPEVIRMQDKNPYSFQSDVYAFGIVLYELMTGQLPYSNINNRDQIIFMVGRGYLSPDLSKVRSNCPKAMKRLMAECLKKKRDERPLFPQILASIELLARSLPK
Protocol: ITC was recorded using a MicroCal PEAQ-ITC instrument. […] Immediately before each ITC measurement, concentrated protein solution was diluted 0.8× in PBS, matched to 2% DMSO and used in the syringe. Protein was titrated in 18 or 20 injections of 2 l volume until saturation. Thermodynamic parameters were obtained using PEAQ-ITC analysis software and a one-site binding model.

BRAF/CRAF heterodimers = experiment: CRAF co-immunoprecipitation monitoring BRAF/CRAF heterodimerization in cells; type: cell-based; details: 1 μM (PHI1) or 1-5 μM (ponatinib), 1 hr
Protocol: (§2) Western blots were performed from whole cell lysates (WCL) prepared in lysis buffer containing 50 mM Tris-HCl pH7.5, 1% NP40, 150 mM NaCl, 1 mM EDTA and 10% glycerol in the presence of protease inhibitor cocktail (Roche). […] Co-immunoprecipitation assays were performed from whole cell lysate prepared in lysis buffer in the presence of protease inhibitor cocktail (Roche) and incubated at 4° C. overnight with gentle rotation, then protein G beads were added and incubated for 2 hrs more at 4° C. Kinase activity assay were performed following manufactured protocol with some modifications (Millipore). In brief, BRAF and CRAF kinase domain, and MEK1 recombinant proteins were incubated for 15 min with inhibitors, then corresponding substrates were added and incubated for 30 min at 30° C. and assay for western blot.

BRAF/MEK complex = experiment: MEK co-immunoprecipitation monitoring BRAF/MEK complex formation in cells; type: cell-based; details: 1 μM (PHI1) or 1-5 μM (ponatinib), 1 hr
Protocol: as §2

BRAF^V600E [7] = target: T1, BRAF^V600E; experiment: In vitro kinase assay, BRAF^V600E activity to phosphorylate recombinant MEK (western blot); type: biochemical; details: western blot readout
Target sequence in this assay (P15056 457-717 V600E): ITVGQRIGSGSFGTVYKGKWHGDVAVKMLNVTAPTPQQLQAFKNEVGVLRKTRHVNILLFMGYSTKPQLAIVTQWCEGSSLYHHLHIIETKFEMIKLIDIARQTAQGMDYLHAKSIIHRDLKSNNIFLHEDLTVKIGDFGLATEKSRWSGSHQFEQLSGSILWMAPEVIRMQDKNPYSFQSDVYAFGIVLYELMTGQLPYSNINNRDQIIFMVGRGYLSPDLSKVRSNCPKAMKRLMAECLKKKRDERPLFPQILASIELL
Protocol: as §2

CRAF = CRAF (Homo sapiens (Human), UniProt P04049); experiment: In vitro CRAF kinase activity assay (western blot); type: biochemical
Chain of CRAF (P04049 349-609, species assumed): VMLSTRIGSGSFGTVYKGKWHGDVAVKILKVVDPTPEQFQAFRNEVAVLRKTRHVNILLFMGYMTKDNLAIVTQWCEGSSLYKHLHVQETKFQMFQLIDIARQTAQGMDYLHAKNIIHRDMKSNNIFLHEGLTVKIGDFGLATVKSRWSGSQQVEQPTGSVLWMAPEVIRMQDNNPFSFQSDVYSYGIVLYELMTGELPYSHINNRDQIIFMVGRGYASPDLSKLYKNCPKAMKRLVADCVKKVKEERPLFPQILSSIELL
Protocol: as §2

ERK signaling = experiment: Inhibition of ERK signaling in BRAF^V600E, p61BRAF^V600E and RAS mutant/BRAF^WT cell lines (immunoblot); type: cell-based; details: 1 μM or 5 μM, 1 hr, all cell lines
Protocol: as §1

Compound	IC50 (BRAF^V600E [1]) [nM]	also measured
C#Cc1cc(C(=O)Nc2ccc(CNCCN3CCN(C(=O)OC)CC3)c(C(F)(F)F)c2)ccc1C [Cmp. 8, Methyl 4-[2-([[4-(3-Ethynyl-4-Methylbenzamido)-2-(Trifluoromethyl)Phenyl]Methyl] Amino)Ethyl]Piperazine-1-Carboxylate]	1790	–
C#Cc1cc(C(=O)Nc2ccc(CNCCN3CCN(C(=O)OC(C)(C)C)CC3)c(C(F)(F)F)c2)ccc1C [Cmp. 9, Tert-Butyl4-[2-([[4-(3-Ethynyl-4-Methylbenzamido)-2-(Trifluoromethyl)Phenyl]Methyl] Amino)Ethyl]Piperazine-1-Carboxylate]	10900	–
C#Cc1cc(C(=O)Nc2ccc(CNCCN3CCOCC3)c(C(F)(F)F)c2)ccc1C [Cmp. 10, 3-ethynyl-4-methyl-N-(4-(((2-morpholinoethyl)amino)methyl)-3-(trifluoromethyl)phenyl)benzamide]	1360	–
C#Cc1cc(C(=O)Nc2ccc(CNCCN3CCN(c4ccccc4)CC3)c(C(F)(F)F)c2)ccc1C [Cmp. 11, 3-Ethynyl-4-Methyl-N-[4-([[2-(4-Phenylpiperazin-1-Yl)Ethyl]Amino]Methyl)-3-(Trifluoromethyl)Phenyl] benzamide]	8940	–
C#Cc1cc(C(=O)Nc2ccc(CNCCN3CCN(c4ccccn4)CC3)c(C(F)(F)F)c2)ccc1C [Cmp. 14, 3-Ethynyl-4-Methyl-N-(4-(((2-(4-(Pyridin-2-Yl)Piperazin-1-Yl)Ethyl)Amino)Methyl)-3-(Trifluoromethyl)Phenyl) benzamide]	1830	–
CCN(C)S(=O)(=O)Nc1ccc(F)c(C(=O)c2c[nH]c3ncc(-c4cnc(C5CC5)nc4)cc23)c1F [PLX7904, reference compound]	6.7	–
Cc1ccc(C(=O)Nc2ccc(CN3CCN(C)CC3)c(C(F)(F)F)c2)cc1C#Cc1cnc2cccnn12 [Ponatinib]	–	Inhibition of BRAF^V600E phosphorylation of recombinant MEK (BRAF^V600E [7]): potent inhibitor; Inhibition of CRAF activity (CRAF): potently inhibited; Inhibition of ERK signaling (ERK signaling): inhibited ERK signaling
N#Cc1c(Oc2ccc(F)c(NC(=O)Cc3cccc(C(F)(F)F)c3)c2)ccc2nc(NC(=O)C3CC3)sc12 [TAK-632, reference compound]	36.2	–

Now from value to molecule, other results behind:

IC50 (BRAF^V600E [1]) [nM]	Compound	also measured
48	COc1cc(N2CCN(CCNCc3ccc(NC(=O)c4ccc(C)c(C#Cc5cnc6cccnn56)c4)cc3C(F)(F)F)CC2)ncn1 [Cmp. 4, 3-(imidazo[1,2-b]pyridazin-3-ylethynyl)-N-(4-(((2-(4-(6-methoxypyrimidin-4-yl)piperazin-1-yl)ethyl)amino)methyl)-3-(trifluoromethyl)phenyl)-4-methylbenzamide]	–
30.7	Cc1ccc(C(=O)Nc2ccc(CNCCN3CCC(=O)CC3)c(C(F)(F)F)c2)cc1C#Cc1cnc2cccnn12 [Cmp. 5, 3-(imidazo[1,2-b]pyridazin-3-ylethynyl)-4-methyl-N-(4-(((2-(4-oxopiperidin-1-yl)ethyl)amino)methyl)-3-(trifluoromethyl)phenyl)benzamide]	–
29.4	Cc1ccc(C(=O)Nc2ccc(CNCCN3CCN(S(C)(=O)=O)CC3)c(C(F)(F)F)c2)cc1C#Cc1cnc2cccnn12 [Cmp. 6, 3-(imidazo[1,2-b]pyridazin-3-ylethynyl)-4-methyl-N-(4-(((2-(4-(methylsulfonyl)piperazin-1-yl)ethyl)amino)methyl)-3-(trifluoromethyl)phenyl)benzamide]	–
44.3	Cc1ccc(C(=O)Nc2ccc(CNCCc3ccncn3)c(C(F)(F)F)c2)cc1C#Cc1cnc2cccnn12 [Cmp. 7, 3-(imidazo[1,2-b]pyridazin-3-ylethynyl)-4-methyl-N-(4-(((2-(pyrimidin-4-yl)ethyl)amino)methyl)-3-(trifluoromethyl)phenyl)benzamide]	–
11900	C#Cc1cc(C(=O)Nc2ccc(CNCCN3CCNCC3)c(C(F)(F)F)c2)ccc1C [Cmp. 12, 3-Ethynyl-4-Methyl-N-[4-([[2-(Piperazin-1-Yl)Ethyl]Amino]Methyl)-3-(Trifluoromethyl)Phenyl] benzamide]	–
5.5	Cc1ccc(C(=O)Nc2ccc(CNCCN3CCNCC3)c(C(F)(F)F)c2)cc1C#Cc1cnc2cccnn12 [Cmp. 13, 3-(2-[imidazo[1,2-b]pyridazin-3-yl]ethynyl)-4-methyl-n-[4-([[2-(piperazin-1-yl)ethyl]amino]methyl)-3-(trifluoromethyl)phenyl]benzamide]	–
10.4	Cc1ccc(C(=O)Nc2ccc(CNCCN3CCOCC3)c(C(F)(F)F)c2)cc1C#Cc1cnc2cccnn12 [PHI1, 3-(imidazo[1,2-b]pyridazin-3-ylethynyl)-4-methyl-N-(4-(((2-morpholinoethyl)amino)methyl)-3-(trifluoromethyl)phenyl)benzamide]	Difference in Koff values versus ponatinib (BLI) (BRAF^V600E [2]): no significant difference; Affinity for BRAF^V600E compared to ponatinib (BLI) (BRAF^V600E [2]; 25° C., PBS, 0.01% Tween-20, 2% DMSO): higher affinity; Reduction of inhibitory activity for FGFR relative to ponatinib (FGFR): 43 fold; Reduction of inhibitory activity for FLT3 relative to ponatinib (FLT3): 10 fold; IC50 ([3]; SKMEL239-C4 cells, 1 hr treatment): 300 to 500 nM; Co-operativity in second site inhibition of BRAF^V600E dimer (p-ERK IC50 upon Encorafenib pre-treatment) ([3]; SKMEL239 C4 cells with vs without Encorafenib pre-treatment): positive co-operativity; Activity against BRAF^V600E monomers in A375 cells [4]: significantly reduced compared to ponatinib; Growth inhibition (viability) [5]: inhibits effectively the growth; Binding affinity for BRAF monomers (ITC) [6]: high micromolar affinity; Induction of BRAF/CRAF complexes (BRAF/CRAF heterodimers): induces less; Induction of BRAF/MEK complexes (BRAF/MEK complex): induces less
